Experimental data from BigSolDB 2.1.

Cc1cc(=O)[nH]c(=S)[nH]1
solubility (mole fraction)
Conditions | 278.15 K | 283.15 K | 288.15 K | 293.15 K | 298.15 K | 303.15 K | 308.15 K | 313.15 K | 318.15 K | 323.15 K
in DMF | 0.0117 | 0.0144 | 0.0174 | 0.0207 | 0.0252 | 0.0294 | 0.0346 | 0.0396 | 0.0463 | 0.0538
in DMSO | – | – | – | 0.0379 | 0.0432 | 0.0491 | 0.0549 | 0.0619 | 0.0692 | 0.0773
in NMP | 0.013 | 0.0155 | 0.0181 | 0.0212 | 0.0246 | 0.0288 | 0.0334 | 0.0391 | 0.0454 | 0.051
in water | 2.53e-05 | 3.23e-05 | 4.15e-05 | 5.26e-05 | 6.68e-05 | 8.48e-05 | 0.000106 | 0.000129 | 0.000156 | 0.000187
